Molecular target: T1, human parathyroid cell Ca^2+ receptor (hPCaR) (Homo sapiens, UniProt P41180)
T1 construct: expressed in transfected cells
T1 sequence (P41180 20-1078): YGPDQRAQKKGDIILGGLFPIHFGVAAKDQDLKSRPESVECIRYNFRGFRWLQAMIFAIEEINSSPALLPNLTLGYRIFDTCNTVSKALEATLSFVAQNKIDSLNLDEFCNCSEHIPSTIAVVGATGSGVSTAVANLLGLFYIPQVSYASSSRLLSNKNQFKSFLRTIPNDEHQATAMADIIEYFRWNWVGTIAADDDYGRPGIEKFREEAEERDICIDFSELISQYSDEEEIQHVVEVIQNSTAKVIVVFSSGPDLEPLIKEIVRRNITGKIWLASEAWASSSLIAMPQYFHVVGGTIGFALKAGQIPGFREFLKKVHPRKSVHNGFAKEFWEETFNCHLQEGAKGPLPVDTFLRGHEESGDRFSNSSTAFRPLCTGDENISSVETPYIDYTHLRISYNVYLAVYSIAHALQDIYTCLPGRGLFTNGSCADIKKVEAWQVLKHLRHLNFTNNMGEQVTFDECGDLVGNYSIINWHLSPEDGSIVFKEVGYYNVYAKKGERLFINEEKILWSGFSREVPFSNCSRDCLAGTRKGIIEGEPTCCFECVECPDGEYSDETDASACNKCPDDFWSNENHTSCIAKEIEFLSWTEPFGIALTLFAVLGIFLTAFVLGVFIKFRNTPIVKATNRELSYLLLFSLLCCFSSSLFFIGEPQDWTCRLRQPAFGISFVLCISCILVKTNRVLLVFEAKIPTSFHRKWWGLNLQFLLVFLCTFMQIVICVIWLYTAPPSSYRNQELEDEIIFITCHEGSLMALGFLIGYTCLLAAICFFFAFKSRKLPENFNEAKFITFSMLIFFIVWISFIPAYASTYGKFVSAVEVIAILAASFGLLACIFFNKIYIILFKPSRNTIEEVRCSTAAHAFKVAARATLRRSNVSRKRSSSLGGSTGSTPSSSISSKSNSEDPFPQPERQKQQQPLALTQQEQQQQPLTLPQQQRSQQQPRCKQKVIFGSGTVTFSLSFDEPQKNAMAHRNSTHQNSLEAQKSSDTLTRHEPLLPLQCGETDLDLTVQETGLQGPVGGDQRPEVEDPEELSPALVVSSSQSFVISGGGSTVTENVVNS
Experiment: [Ca2+]i measurement with fluo-3 in HEK 293 4.0-7 cells stably transfected with hPCaR
Format: cell-based
Details: fluo-3 fluorescence (485/530 nm), effect on [Ca^2+]i
Method: The activities of the compounds of the present invention on calcium receptors were measured. In one embodiment, the measurement was performed in accordance with the method described in Example 4 of Nemeth et al., PCT/US95/13704 (International Publication No. WO96/12697) herein incorporated by reference.
A 4.0-kb NotI-HindIII fragment of the human parathyroid cell Ca^2+ receptor (hPCaR) cDNA was subcloned into the mammalian expression vector pCEP4 (Invitrogen) containing the hygromycin-resistant gene as a selectable marker. This plasmid was transfected into HEK 293 cells by calcium phosphate precipitation. Transfected cells were grown in Dulbecco's modified Eagle's medium containing 10% fetal bovine serum and hygromycin (200 μg/mL). Hygromycin-resistant colonies were subcloned and assayed for hPCaR mRNA by solution hybridization using a ^32P-labeled RNA probe complementary to the (4.0 kb) hPCaR sequence (Garrett, et al., J. Biol. Chem. 270, 12919-12925 (1995)). Clone 7 was used to assess the effects of compounds on [Ca^2+]i. This stably transfected cell line is termed HEK 293 4.0-7. For measurements of [Ca^2+]i, the cells were recovered from tissue culture flasks by brief treatment with 0.02% EDTA and then washed and resuspended in PCB containing 1 mM CaCl2 and 0.1% Bovine Serum Albumin (“BSA”). The cells were loaded with fluo-3 by incubation for 30 min at 37° C., with parathyroid cell buffer (126 mM NaCl, 4 mM KCl, 1 mM MgSO4, 0.7 mM K2HPO/KH2PO4, 20 mM HEPES.NaOH (pH 7.45)) containing 0.5% BSA in lmM CaCl2 and 2 μM fluo-3 acetoxymethyl ester. The cells were subsequently washed, each test compound was added to the cells and the fluorescence was recorded by using excitation and emission wavelengths of 485 and 530 nm, respectively.

EC50, ≤ 10 µM:
COc1cccc([C@@H](C)NCc2ccc(OC)c(-c3cnc(OCC(F)(F)F)nc3)c2)c1 [(1R)-1-(3-(methyloxy)phenyl)-N-((4-(methyloxy)-3-(2-((2,2,2-trifluoroethyl)oxy)-5-pyrimidinyl)phenyl)methyl)ethanamine]
COc1cccc([C@@H](C)NCc2ccc(OC)c(-c3cnccn3)c2)c1 [(1R)-1-(3-(methyloxy)phenyl)-N-((4-(methyloxy)-3-(2-pyrazinyl)phenyl)methyl)ethanamine]
COc1cccc([C@@H](C)NCc2ccc(OC)c(-c3ncccn3)c2)c1 [(1R)-1-(3-(methyloxy)phenyl)-N-((4-(methyloxy)-3-(2-pyrimidinyl)phenyl)methyl)ethanamine]
COc1cccc([C@@H](C)NCc2ccc(OC)c(-c3cccs3)c2)c1 [(1R)-1-(3-(methyloxy)phenyl)-N-((4-(methyloxy)-3-(2-thienyl)phenyl)methyl)ethanamine]
COc1cccc([C@@H](C)NCc2ccc(OC)c(-c3cccnc3)c2)c1 [(1R)-1-(3-(methyloxy)phenyl)-N-((4-(methyloxy)-3-(3-pyridinyl)phenyl)methyl)ethanamine]
COc1cccc([C@@H](C)NCc2ccc(OC)c(-c3ccsc3)c2)c1 [(1R)-1-(3-(methyloxy)phenyl)-N-((4-(methyloxy)-3-(3-thienyl)phenyl)methyl)ethanamine]
COc1cccc([C@@H](C)NCc2ccc(OC)c(-c3nnc(C(F)(F)F)o3)c2)c1 [(1R)-1-(3-(methyloxy)phenyl)-N-((4-(methyloxy)-3-(5-(trifluoromethyl)-1,3,4oxadiazol-2-yl)phenyl)methyl)ethanamine]
COc1cccc([C@@H](C)NCc2ccc(OC)c(-c3cncnc3)c2)c1 [(1R)-1-(3-(methyloxy)phenyl)-N-((4-(methyloxy)-3-(5-pyrimidinyl)phenyl)methyl)ethanamine]
COc1cccc([C@@H](C)NCc2ccc(OC)c(-c3ccc(OCC(F)(F)F)nc3)c2)c1 [(1R)-1-(3-(methyloxy)phenyl)-N-((4-(methyloxy)-3-(6-((2,2,2-trifluoroethyl)oxy)-3-pyridinyl)phenyl)methyl)ethanamine]
COc1cccc([C@@H](C)NCc2ccc(OC)c(-c3ccc(C(F)(F)F)nc3)c2)c1 [(1R)-1-(3-(methyloxy)phenyl)-N-((4-(methyloxy)-3-(6-(trifluoromethyl)-3-pyridinyl)phenyl)methyl)ethanamine]
COc1cccc([C@@H](C)NCc2ccc(OC)c(-c3ccc4ncccc4c3)c2)c1 [(1R)-1-(3-(methyloxy)phenyl)-N-((4-(methyloxy)-3-(6-quinolinyl)phenyl)methyl)ethanamine]
COc1cccc([C@@H](C)NCc2ccc(OC)c(-c3ccc4nccnc4c3)c2)c1 [(1R)-1-(3-(methyloxy)phenyl)-N-((4-(methyloxy)-3-(6-quinoxalinyl)phenyl)methyl)ethanamine]
COc1cccc([C@@H](C)NCc2ccc(OC)c(-c3cccc(OC(F)(F)F)c3)c2)c1 [(1R)-1-(3-(methyloxy)phenyl)-N-((6-(methyloxy)-3′-((trifluoromethyl)oxy)-1,1′-biphenyl-3-yl)methyl)ethanamine]
COc1cccc([C@@H](C)NCc2ccc(OC)c(-c3cccc(C(F)(F)F)c3)c2)c1 [(1R)-1-(3-(methyloxy)phenyl)-N-((6-(methyloxy)-3′-(trifluoromethyl)-1,1′-biphenyl-3-yl)methyl)ethanamine]
COc1cccc([C@@H](C)NCc2ccc(OC)c(-c3ccc(OC(F)(F)F)cc3)c2)c1 [(1R)-1-(3-(methyloxy)phenyl)-N-((6-(methyloxy)-4′-((trifluoromethyl)oxy)-1,1′-biphenyl-3-yl)methyl)ethanamine]
COc1cccc([C@@H](C)NCc2ccc(OC)c(-c3ccc(C(F)(F)F)cc3)c2)c1 [(1R)-1-(3-(methyloxy)phenyl)-N-((6-(methyloxy)-4′-(trifluoromethyl)-1,1′-biphenyl-3-yl)methyl)ethanamine]
COc1ccc(CN[C@H](C)c2cccc(Cl)c2)cc1-c1ccccc1 [(1R)-1-(3-chlorophenyl)-N-((6-(methyloxy)-1,1′-biphenyl-3-yl)methyl)ethanamine]
COc1ccc(CN[C@H](C)c2cccc(Cl)c2)cc1-c1ccc(C(F)(F)F)cc1 [(1R)-1-(3-chlorophenyl)-N-((6-(methyloxy)-4′-(trifluoromethyl)-1,1′-biphenyl-3-yl)methyl)ethanamine]
COc1ccc(CN[C@H](C)c2cccc(F)c2)cc1-c1ccccc1 [(1R)-1-(3-fluorophenyl)-N-((6-(methyloxy)-1,1′-biphenyl-3-yl)methyl)ethanamine]
COc1ccc(CN[C@H](C)c2cccc(F)c2)cc1-c1ccc(S(C)(=O)=O)cc1 [(1R)-1-(3-fluorophenyl)-N-((6-(methyloxy)-4′-(methylsulfonyl)-1,1′-biphenyl-3-yl)methyl)ethanamine]
COc1ccc(CN[C@H](C)c2cccc(F)c2)cc1-c1ccc(C(F)(F)F)cc1 [(1R)-1-(3-fluorophenyl)-N-((6-(methyloxy)-4′-(trifluoromethyl)-1,1′-biphenyl-3-yl)methyl)ethanamine]
COc1ccc([C@@H](C)NCc2cccc(-c3cnccn3)c2)cc1 [(1R)-1-(4-(methyloxy)phenyl)-N-((3-(2-pyrazinyl)phenyl)methyl)ethanamine]
COc1ccc([C@@H](C)NCc2cccc(-c3ccccn3)c2)cc1 [(1R)-1-(4-(methyloxy)phenyl)-N-((3-(2-pyridinyl)phenyl)methyl)ethanamine]
COc1ccc([C@@H](C)NCc2cccc(-c3ccc(OC)nn3)c2)cc1 [(1R)-1-(4-(methyloxy)phenyl)-N-((3-(6-(methyloxy)-3-pyridazinyl)phenyl)methyl)ethanamine]
COc1ccc([C@@H](C)NCc2cccc(-c3ccc(C)nc3)c2)cc1 [(1R)-1-(4-(methyloxy)phenyl)-N-((3-(6-methyl-3-yridinyl)phenyl)methyl)ethanamine]
COc1ccc([C@@H](C)NCc2ccc(OC)c(-c3nccs3)c2)cc1 [(1R)-1-(4-(methyloxy)phenyl)-N-((4-(methyloxy)-3-(1,3-thiazol-2-yl)phenyl)methyl)ethanamine]
COc1ccc([C@@H](C)NCc2ccc(OC)c(-c3cnccn3)c2)cc1 [(1R)-1-(4-(methyloxy)phenyl)-N-((4-(methyloxy)-3-(2-pyrazinyl)phenyl)methyl)ethanamine]
COc1ccc([C@@H](C)NCc2ccc(OC)c(-c3cccnc3)c2)cc1 [(1R)-1-(4-(methyloxy)phenyl)-N-((4-(methyloxy)-3-(3-pyridinyl)phenyl)methyl)ethanamine]
